Results as given in article PMC5823406, “Vehicle development, pharmacokinetics and toxicity of the anti-invasive agent 4-fluoro-3’,4’,5’-trimethoxychalcone in rodents” (PLoS ONE, 2018).
Marks after values point to notes of the source that are not given here.

Test system: CD-1 mice
Experiment: 7-Day repeat-dose toxicity study (medicated gel)
Type: in vivo, mouse
Details: for Organ weight: Kidneys / Organ weight: Liver / Organ weight: Spleen: Average±SD; for Hyperactivity and increased anxiety on opening of the cages: from day 2 on
Description: Fifteen 7-week old male CD-1 mice, weighing 27 to 34 g, were obtained from Janvier, France. Animals were randomly allocated to one of four cohorts (N = 4 for the 0 mg/kg, 100 mg/kg and 300 mg/kg C16 cohorts, N = 3 for the water control group). Animals were healthy at the start of the trial. Each cohort was housed in one conventional cage with wood chip bedding and kept in a room with a well-controlled temperature (20–24°C) and humidity with 12-h light/dark cycles. Duration of acclimation was five days, during which all animals had ad libitum access to feed and tap water. Feed was obtained from Carfil, Belgium (Complete feed for rats and mice, article n° 10783915). Animals were ear-marked under isoflurane anesthesia (induction 5%, maintenance 2.5%, oxygen 1 L/min) on day -3 of the study. The study was not blinded.
On the morning of day -2 of the study, tap water access was removed from the 0 mg/kg, 100 mg/kg and 300 mg/kg C16 cohorts. These groups were granted access to two non-medicated cups of Medigel sucralose (one in a tailor-made plastic holder with magnetic fixation system to the side of the cage, one in a cardboard holder on top of the bedding material) for an acclimatization period of three days. Note: the magnetic fixation system is preferable, as animals tear and consume the cardboard holders.
Medicated gels were prepared in order to provide animals with a PO C16 dose equaling oral gavage dosing at 0, 100 and 300 mg/kg three times per day (0, 78.43 and 235.29 mg C16 per cup, respectively, assuming a consumption of 7 mL of gel per day and an average animal weight of 30 g). On the morning of day 0 of the study, treatment with two medicated gels was started and maintained up to the morning of day 7 (i.e. a 7-day treatment). Fresh cups were prepared and provided every day. Meanwhile, the water control group was continuously granted unlimited access to tap water. Throughout the study, all animals had ad libitum access to feed, except for the water control group, which was fasted on the evening of day 6, i.e. twelve hours prior to the single PO test article administration. Animal weight, feed and water/gel consumption and the presence of toxic symptoms and autonomic effects were monitored on a daily basis for all cohorts.
On the evening of day 6, blood was collected via the tail vein for the 0, 100 and 300 mg/kg C16 cohorts for determination of the whole blood C16 level. On the morning of day 7, mice of the 0, 100 and 300 mg/kg C16 cohorts were anesthetized by IP injection with 250 mg/kg of Avertin (20 mL/kg, preparation see Section E in S1 File). Blood for C16 determination and hematological and biochemical analysis was collected via cardiac exsanguination (600 μL to 1 mL). Detailed analysis protocols are described below. Afterward, animals were sacrificed by cervical dislocation.
All animals were necropsied and assessed for gross pathology. Liver, kidneys and spleen weights were recorded, and fragments of these organs were fixed in a 4% formaldehyde solution and processed for microscopic evaluation.
Cardiac puncture as described above afforded 0.6–1 mL of blood. Approximately 500 μL thereof was collected in a Greiner Bio 0.5 mL ethylenediaminetetraacetic acid (EDTA) Eppendorf tube for hematological parameter determination and kept at room temperature. The remaining volume was collected in a regular Eppendorf tube and allowed to clot completely at room temperature over 45 min. The tubes were centrifuged at 1,900 x g (3000 rpm) and 4 °C for 10 min using a swinging bucket rotor. The upper serum phase was transferred to a new tube with conical bottom. Care was taken not to disturb the intermediate buffy coat layer. The serum samples were centrifuged at 16,000 x g and 4 °C for 10 min in a fixed-angle rotor. The cleared supernatant was transferred to a new tube without disturbing the pellet, affording 200–500 μL of serum. Samples were diluted to 500 μL with normal saline, flash frozen in liquid N2 and stored at -80 °C prior to analysis. […]

[1] = 100 mg/kg cohort, 7-day PO via medicated gels, average±SD
[2] = 300 mg/kg cohort, 7-day PO via medicated gels
[3] = 300 mg/kg cohort, 7-day PO via medicated gels, average±SD

COc1cc(C(=O)/C=C/c2ccc(F)cc2)cc(OC)c1OC [C16, 4-fluoro-3’,4’,5’-trimethoxychalcone]
ALP [1]: 118±33 IU/L | ALT [1]: 70±40 IU/L | AST [1]: 345±365 IU/L | BASO [1]: 0.2±0.2% | CHO [1]: 96 ± 21 mg/dL | EO [1]: 0±0% | GLUC [1]: 218 ± 30 mg/dL | HCT [1]: 44.5±5.2% | HGB [1]: 12.2 ± 0.2 g/dL | IG [1]: 0.04±0.06 10^3/μL | LYMP [1]: 79.2±3.4% | MCH [1]: 14.7 ± 1.5 pg | MCV [1]: 53.4 ± 1.8 fL | MONO [1]: 2.5±0.6% | NEUT [1]: 16.9±4.9% | NRBC [1]: 0.75±1.06 10^3/μL | PLT [1]: 281±33 10^3/μL | RBC [1]: 8.32±0.69 10^6/μL | TP [1]: 42.0 ± 4.5 g/L | TRIGL [1]: 110 ± 45 mg/dL | WBC [1]: 3.05±0.08 10^3/μL | Organ weight: Kidneys (100 mg/kg cohort): 0.45 ± 0.02 g | Organ weight: Liver (100 mg/kg cohort): 1.67 ± 0.33 g | Organ weight: Spleen (100 mg/kg cohort): 0.16 ± 0.06 g | Daily gel consumption, average (100 mg/kg cohort, Day 1): 14.9 g/animal | Feed consumption, average (100 mg/kg cohort, Day 1): 4.8 g/animal | Animal weight (100 mg/kg cohort, Day 1, Average±SD): 30.0 ± 1.7 g | Daily gel consumption, average (100 mg/kg cohort, Day 2): 12.3 g/animal | Feed consumption, average (100 mg/kg cohort, Day 2): 5.4 g/animal | Animal weight (100 mg/kg cohort, Day 2, Average±SD): 30.6 ± 1.6 g | Daily gel consumption, average (100 mg/kg cohort, Day 3): 11.2 g/animal | Feed consumption, average (100 mg/kg cohort, Day 3): 6.1 g/animal | Animal weight (100 mg/kg cohort, Day 3, Average±SD): 31.2 ± 2.0 g | Daily gel consumption, average (100 mg/kg cohort, Day 4): 15.1 g/animal | Feed consumption, average (100 mg/kg cohort, Day 4): 6.9 g/animal | Animal weight (100 mg/kg cohort, Day 4, Average±SD): 32.0 ± 2.1 g | Daily gel consumption, average (100 mg/kg cohort, Day 5): 18.1 g/animal | Feed consumption, average (100 mg/kg cohort, Day 5): 5.9 g/animal | Animal weight (100 mg/kg cohort, Day 5, Average±SD): 32.4 ± 2.0 g | Daily gel consumption, average (100 mg/kg cohort, Day 6): 13.1 g/animal | Feed consumption, average (100 mg/kg cohort, Day 6): 5.6 g/animal | Animal weight (100 mg/kg cohort, Day 6, Average±SD): 32.1 ± 2.0 g | Daily gel consumption, average (100 mg/kg cohort, Day 7): 11.8 g/animal | Feed consumption, average (100 mg/kg cohort, Day 7): 5.6 g/animal | Animal weight (100 mg/kg cohort, Day 7, Average±SD): 32.7 ± 2.2 g | Hyperactivity and increased anxiety on opening of the cages (100 mg/kg cohort): slightly noticeable | IG [2]: 0 10^3/μL | LYMP [2]: 60.1% | NEUT [2]: 39.9% | ALP [3]: 94±18 IU/L | ALT [3]: 43±9 IU/L | AST [3]: 221±65 IU/L | BASO [3]: 0±0% | CHO [3]: 73 ± 18 mg/dL | EO [3]: 0±0% | GLUC [3]: 206±24 ^a mg/dL | HCT [3]: 34.0±7.78% | HGB [3]: 10.1 ± 2.9 g/dL | MCH [3]: 16.0 ± 0.2 pg | MCV [3]: 54.5 ± 4.24 fL | MONO [3]: 2.6±3.7% | NRBC [3]: 0.35±0.49 10^3/μL | RBC [3]: 6.32±1.92 10^6/μL | TP [3]: 31.6 ± 21.3 g/L | TRIGL [3]: 123 ± 55 mg/dL | WBC [3]: 2.97±0.94 10^3/μL | Organ weight: Liver (300 mg/kg cohort): 1.70 ± 0.19 g | Organ weight: Spleen (300 mg/kg cohort): 0.15 ± 0.04 g | Organ weight: Kidneys (300 mg/kg cohort, p 0.001): 0.39 ± 0.02 g | Daily gel consumption, average (300 mg/kg cohort, Day 1): 15.2 g/animal | Feed consumption, average (300 mg/kg cohort, Day 1): 6.0 g/animal | Animal weight (300 mg/kg cohort, Day 1, Average±SD): 28.6 ± 0.6 g | Daily gel consumption, average (300 mg/kg cohort, Day 2): 12.6 g/animal | Feed consumption, average (300 mg/kg cohort, Day 2): 6.3 g/animal | Animal weight (300 mg/kg cohort, Day 2, Average±SD): 29.8 ± 0.7 g | Daily gel consumption, average (300 mg/kg cohort, Day 3): 14.7 g/animal | Feed consumption, average (300 mg/kg cohort, Day 3): 8.4 g/animal | Animal weight (300 mg/kg cohort, Day 3, Average±SD): 29.6 ± 0.8 g | Daily gel consumption, average (300 mg/kg cohort, Day 4): 12.9 g/animal | Feed consumption, average (300 mg/kg cohort, Day 4): 6.6 g/animal | Animal weight (300 mg/kg cohort, Day 4, Average±SD): 30.5 ± 1.4 g | Daily gel consumption, average (300 mg/kg cohort, Day 5): 15.4 g/animal | Feed consumption, average (300 mg/kg cohort, Day 5): 6.1 g/animal | Animal weight (300 mg/kg cohort, Day 5, Average±SD): 30.7 ± 1.6 g | Daily gel consumption, average (300 mg/kg cohort, Day 6): 13.6 g/animal | Feed consumption, average (300 mg/kg cohort, Day 6): 7.1 g/animal | Animal weight (300 mg/kg cohort, Day 6, Average±SD): 31.1 ± 1.8 g | Daily gel consumption, average (300 mg/kg cohort, Day 7): 12.9 g/animal | Feed consumption, average (300 mg/kg cohort, Day 7): 6.2 g/animal | Animal weight (300 mg/kg cohort, Day 7, Average±SD): 31.3 ± 1.2 g | Hyperactivity and increased anxiety on opening of the cages (300 mg/kg cohort): noticeable | Kidney weight versus 100 mg/kg and 0 mg/kg cohort (300 mg/kg cohort, p = 0.001): slight but significant decrease | Gross lesions on detailed necropsy (medicated gel, 7 days): No gross lesions | Histology of the kidney and spleen (medicated gel, 7 days): no abnormalities
